# Patent US20030055263A1, “Carboxylic acid derivatives, medicaments comprising these compounds, their use and processes for their production” (Boehringer Ingelheim Pharma KG, priority 2001, published 2003)
# Biological target: T1, telomerase in nuclear extracts from HeLa cells (Homo sapiens, UniProt O14746)
# T1 construct: The activity of telomerase in nuclear extracts from HeLa cells; endogenous in cells; host or cells: HeLa-S3 (ATCC CCL-2.2) nuclear extract
# Assay: Telomerase test in nuclear extracts from HeLa cells (method of Morin)
# Assay type: biochemical
# Conditions: HeLa nuclear extract, 120 minutes at 30° C., inhibitor 1 nM to 100 μM, 32P-dGTP incorporation quantified by Phospho-Imager
# Method: 1. Preparation of nuclear extracts from HeLa cells: Nuclear extracts were prepared according to Dignam (Dignam et al. in Nucleic Acids Res. 11, 1475-1489 (1983)). All the steps were carried out at 4° C., all the equipment and solutions were pre-cooled to 4° C. At least 1×10^9 HeLa-S3 cells growing in suspension culture (ATCC catalogue number CCL-2.2) were harvested by centrifuging for 5 minutes at 1000×g and washed once with PBS buffer ([…]; 2.7 mM KCl; 8.1 mM Na2HPO4; 1.5 mM KH2PO4) . After the cell volume had been determined, the cells were suspended in 5 times the volume of hypotonic buffer (10 mM HEPES/KOH, pH 7.8; 10 mM KCl; 1.5 mM MgCl2) and then left for 10 minutes at 4° C. After centrifuging for 5 minutes at 1000×g the cell pellet was suspended in twice the volume of hypotonic buffer in the presence of 1 mM DTE and 1 mM PMSF and broken up with a Dounce homogeniser. The homogenised material was made isotonic with 0.1 volume of 10-fold saline buffer (300 mM HEPES/KOH, pH 7.8; 1.4 M KCl; 30 mM MgCl2). The cell nuclei were separated from the ingredients of the cytoplasm by centrifuging and then suspended in twice the volume of nuclear extraction buffer (20 mM HEPES/KOH, pH 7.9; 420 mM KCl; 1.5 mM MgCl2; 0.2 mM EDTA; 0.5 mM DTE; 25% glycerol). The nuclei were broken up using a Dounce homogeniser and incubated for 30 minutes at 4° C. with gentle stirring. Any insoluble ingredients were removed by centrifuging for 30 minutes at 10.000 rpm (SS-34 Rotor). Then the nuclear extract was dialysed for 4-5 hours against AM-100 buffer (20 mM tris/HCl, pH 7.9; 100 mM KCl; 0.1 mM EDTA; 0.5 mM DTE; 20% glycerol). The nuclear extracts obtained were frozen in liquid nitrogen and stored at −80° C.
# 2. Telomerase test: The activity of telomerase in nuclear extracts from HeLa cells was determined using the method described by Morin (Morin in Cell 59. 521-529 (1989)). […] If the inhibition constant of potential telomerase inhibitors was to be determined, these were also added to the telomerase reaction in a concentration range of from 1 nM to 100 μM. […]
# T1 sequence (O14746 whole entry): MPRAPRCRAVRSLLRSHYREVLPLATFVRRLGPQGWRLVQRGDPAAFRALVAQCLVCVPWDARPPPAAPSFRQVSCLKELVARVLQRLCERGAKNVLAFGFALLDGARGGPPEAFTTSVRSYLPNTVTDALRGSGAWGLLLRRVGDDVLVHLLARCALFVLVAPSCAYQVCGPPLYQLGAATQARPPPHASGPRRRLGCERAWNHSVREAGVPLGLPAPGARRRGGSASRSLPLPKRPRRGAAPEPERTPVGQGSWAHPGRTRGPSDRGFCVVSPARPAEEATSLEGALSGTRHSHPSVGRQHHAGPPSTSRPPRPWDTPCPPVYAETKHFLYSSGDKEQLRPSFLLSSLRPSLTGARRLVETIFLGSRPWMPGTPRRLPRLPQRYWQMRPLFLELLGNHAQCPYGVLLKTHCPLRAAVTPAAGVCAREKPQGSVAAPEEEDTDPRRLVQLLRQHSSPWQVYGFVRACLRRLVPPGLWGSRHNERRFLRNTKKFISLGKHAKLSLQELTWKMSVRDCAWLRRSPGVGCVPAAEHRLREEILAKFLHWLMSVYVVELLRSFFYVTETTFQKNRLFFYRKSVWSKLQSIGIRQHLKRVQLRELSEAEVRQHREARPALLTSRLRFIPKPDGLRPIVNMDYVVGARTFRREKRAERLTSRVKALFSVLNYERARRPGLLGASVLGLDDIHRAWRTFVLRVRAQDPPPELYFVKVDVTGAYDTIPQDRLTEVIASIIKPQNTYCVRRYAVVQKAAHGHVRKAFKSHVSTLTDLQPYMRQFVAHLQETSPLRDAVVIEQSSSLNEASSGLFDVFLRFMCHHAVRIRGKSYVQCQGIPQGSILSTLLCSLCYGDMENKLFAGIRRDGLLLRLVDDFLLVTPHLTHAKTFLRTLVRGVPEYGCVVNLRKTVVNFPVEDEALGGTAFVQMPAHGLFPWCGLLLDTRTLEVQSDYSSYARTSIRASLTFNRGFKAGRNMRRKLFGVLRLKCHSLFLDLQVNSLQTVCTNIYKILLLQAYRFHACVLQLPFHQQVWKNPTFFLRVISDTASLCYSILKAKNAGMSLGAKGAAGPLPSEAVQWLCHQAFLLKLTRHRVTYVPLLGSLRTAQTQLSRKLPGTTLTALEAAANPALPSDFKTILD
# T1 sequence (O60832 whole entry partner): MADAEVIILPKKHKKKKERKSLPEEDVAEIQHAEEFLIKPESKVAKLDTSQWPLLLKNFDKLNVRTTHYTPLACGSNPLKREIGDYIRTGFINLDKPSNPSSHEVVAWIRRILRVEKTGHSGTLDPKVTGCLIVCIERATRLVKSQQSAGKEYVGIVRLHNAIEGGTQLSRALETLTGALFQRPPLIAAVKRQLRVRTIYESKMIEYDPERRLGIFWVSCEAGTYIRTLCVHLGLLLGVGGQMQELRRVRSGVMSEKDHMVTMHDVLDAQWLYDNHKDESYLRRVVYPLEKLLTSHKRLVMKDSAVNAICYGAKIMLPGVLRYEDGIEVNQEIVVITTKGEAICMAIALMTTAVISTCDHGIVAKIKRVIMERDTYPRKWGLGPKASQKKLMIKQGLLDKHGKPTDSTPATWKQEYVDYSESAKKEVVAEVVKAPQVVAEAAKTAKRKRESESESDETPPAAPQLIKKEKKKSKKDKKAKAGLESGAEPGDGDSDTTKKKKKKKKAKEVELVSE
# T1 sequence (Q9NX24 whole entry partner): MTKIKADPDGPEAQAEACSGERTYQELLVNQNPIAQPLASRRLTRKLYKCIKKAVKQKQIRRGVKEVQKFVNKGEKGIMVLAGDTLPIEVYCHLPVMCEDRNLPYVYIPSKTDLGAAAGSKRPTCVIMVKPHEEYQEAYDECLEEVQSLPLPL
# T1 sequence (Q9NPE3 whole entry partner): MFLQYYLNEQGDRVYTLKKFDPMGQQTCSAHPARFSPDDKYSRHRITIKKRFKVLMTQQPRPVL
# T1 sequence (Q9NY12 whole entry partner): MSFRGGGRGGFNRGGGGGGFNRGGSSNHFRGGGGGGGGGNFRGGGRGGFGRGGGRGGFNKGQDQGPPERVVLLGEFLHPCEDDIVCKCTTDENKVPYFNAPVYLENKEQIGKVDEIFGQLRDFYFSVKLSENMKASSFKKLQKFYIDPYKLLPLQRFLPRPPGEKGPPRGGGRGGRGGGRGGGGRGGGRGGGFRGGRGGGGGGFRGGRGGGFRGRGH
# T1 sequence (Q9BUR4 whole entry partner): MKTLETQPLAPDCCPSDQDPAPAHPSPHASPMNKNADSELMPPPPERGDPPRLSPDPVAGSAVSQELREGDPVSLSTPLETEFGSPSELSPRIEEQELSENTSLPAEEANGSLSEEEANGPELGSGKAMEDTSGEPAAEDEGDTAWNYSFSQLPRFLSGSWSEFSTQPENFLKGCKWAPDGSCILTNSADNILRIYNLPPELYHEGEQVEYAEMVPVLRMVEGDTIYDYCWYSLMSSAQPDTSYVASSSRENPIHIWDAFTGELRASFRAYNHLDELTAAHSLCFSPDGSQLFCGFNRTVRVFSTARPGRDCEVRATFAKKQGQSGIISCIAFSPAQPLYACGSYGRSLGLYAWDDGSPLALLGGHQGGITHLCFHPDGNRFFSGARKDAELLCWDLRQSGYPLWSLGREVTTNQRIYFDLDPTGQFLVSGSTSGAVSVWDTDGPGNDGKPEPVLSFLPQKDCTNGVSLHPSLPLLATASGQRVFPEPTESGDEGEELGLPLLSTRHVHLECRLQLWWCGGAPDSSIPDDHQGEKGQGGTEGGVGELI
row,IC50 [nM],Structure (SMILES)
1,< 1000,"O=C(O)C1=C(C(=O)Nc2nc(-c3ccc4ccccc4c3)cs2)CCC1 [Example 35, 2-[4-(naphthalin-2-yl)-thiazol-2-ylaminocarbonyl]-cyclopent-1-ene-carboxylic acid]"
2,< 1000,"O=C(O)c1ccccc1Nc1nccc(-c2ccc3ccccc3c2)n1 [Example 50, 2-[4-(naphthalin-2-yl)-pyrimidin-2-ylamino]-benzoic acid]"
3,< 5000,"O=C(O)c1ccccc1C(=O)Nc1nc(-c2ccc3ccccc3c2)cs1 [Example 3, 2-[4-(naphthalin-2-yl)-thiazol-2-ylaminocarbonyl]-benzoic acid]"
